# Results published in patent publication US20250319021A1, “COMPOSITION OF HYDROGEL LOADED WITH HORMONE” (VITALTE LIFESCIENCES INC., priority 2024, published 2025).
# What was measured:
# [1] = T release rate comparison in saline incubation media; assay type: physicochemical; settings: 2, 4 and 6 hours
# Procedure: In order to compare the release rate results of hydrogel encapsulated T to pelleted T, larger gels had to be prepared as the T pellets which the hydrogels are intended to replace are 25 mg, where the E2 pellets are merely 6 mg. Thus, approximately 83 mg of hydrogel at 30% T loading and 1% HA were prepared. In order to achieve even or consistent crosslinking in these much larger hydrogel samples, Likarda's patented micromolds (shown in FIG. 21) were employed. After formation, the encapsulated T was removed from the molds and placed in tubes to be rotated for an hour. The encapsulated T hydrogels were then removed from the tubes and stored in Dulbecco's PBS buffer. The large hydrogel blocks encapsulating T were then tested and compared to 25 mg T pellets and micronized T powder.
# The T powder was produced as a 2.5 mg/mL slurry in buffer to reach the near saturation point of T in the buffer. Samples of the T powder slurry were removed from only the top layer of the slurry fluid to avoid aspirating T particles in the slurry that may have precipitated at to the bottom. T pellets were collected directly from the vials in which they were stored. The 83 mg hydrogels containing 30% T were collected from Dulbecco's PBS buffer, rinsed, and dried. Each of the collected samples was then placed in a separate container of incubation media (saline in this instance) for the release studies. […]
# [2] = cited from earlier work
SMILES,T release level / approximate saturation level of T in saline [1],solubility in water compared to E2 [2]
"C[C@]12CC[C@H]3[C@@H](CCC4=CC(=O)CC[C@@]43C)[C@@H]1CC[C@@H]2O [T powder, Testosterone]",about 1.5 mg/L,
"C[C@]12CC[C@H]3[C@@H](CCC4=CC(=O)CC[C@@]43C)[C@@H]1CC[C@@H]2O [Testosterone (T), Testosterone]",,much higher solubility factor in water compared to E2
